Laboratory results published in patent publication US4367339A, “Substituted N-nitroaniline compounds and inorganic and organic salts thereof useful for enhancing auxiliary branching, canopy flowering and crop yield of plant and as lodging inhibitors therefor” (priority 1980, dated 1983).
Counter-ions that a name gives are not always drawn.

Tested on: barley (Hordeum vulgare, var. Georgie)
Assay: Antilodging effects on barley
Type: in vivo
Parameters: key to Tiller formation / Stem stiffness: 5 = no increase over controls, 3 = moderate significant increase
Settings: for Stem stiffness / Tiller formation: control 5; for Weight Dry: control 5.2; for Weight Fresh: control 49.1; for Height: control 53.1; for Phytotoxicity: three weeks after spraying
Procedure: In this experiment the procedure of Example 7 is repeated excepting that the crop used was barley (Hordeum vulgare, var. Georgie; European lodging prone variety). The plants are treated at the 3-4 leaf stage. Plants are watered prior to treatment and then sprayed to provide the kg/ha rate of test compound desired. After spraying the plants are placed on greenhouse benches and watered and fertilized in accordance with normal greenhouse procedures.
Three weeks after spraying the plants are measured and harvested. All treatments are replicated six times and companions are made against untreated controls.
The following rating system is used:
5=No increase over controls
3=Moderate, significant increase over controls.

| Compound | Stem stiffness (rate 0.25 kg/ha) | Tiller formation (rate 0.25 kg/ha) | Weight Dry (rate 0.25 kg/ha) | Weight Fresh (rate 0.25 kg/ha) | Height (rate 0.25 kg/ha) | Phytotoxicity (rate 0.25 kg/ha) | Stem stiffness (rate 0.5 kg/ha) | Tiller formation (rate 0.5 kg/ha) | Weight Dry (rate 0.5 kg/ha) | Weight Fresh (rate 0.5 kg/ha) | Height (rate 0.5 kg/ha) | Phytotoxicity (rate 0.5 kg/ha) | Stem stiffness (rate 1.0 kg/ha) | Tiller formation (rate 1.0 kg/ha) | Weight Dry (rate 1.0 kg/ha) | Weight Fresh (rate 1.0 kg/ha) | Height (rate 1.0 kg/ha) | Phytotoxicity (rate 1.0 kg/ha) |
| --- | --- | --- | --- | --- | --- | --- | --- | --- | --- | --- | --- | --- | --- | --- | --- | --- | --- | --- |
| Brn1c(-c2ccccc2)cc(-c2ccccc2)[n+]1Br.O=[N+]([O-])[N-]c1c(Br)cccc1Br [1,2-Dibromo-3,5-diphenylpyrazolium salt with 2,6-dibromo-N--aci-nitroaniline] | 4 | 5 (No increase over controls) | 6.9 g | 59.2 g | 58.2 cm | 5 (No increase over controls) | 4 | 5 (No increase over controls) | 6.7 g | 60.7 g | 53.3 cm | 5 (No increase over controls) | 3 (Moderate, significant increase over controls.) | 3 (Moderate, significant increase over controls.) | 5.9 g | 60.4 g | 52.3 cm | 5 (No increase over controls) |
| Cn1c(-c2ccccc2)cc(-c2ccccc2)[n+]1C.O=[N+]([O-])[N-]c1cccc(Cl)c1Cl [1,2-Dimethyl-3,5-diphenylpyrazolium salt with 2,3-dichloro-N--aci-nitroaniline] | 5 (No increase over controls) | 5 (No increase over controls) |  | 51.2 g | 56.3 cm | 5 (No increase over controls) | 5 (No increase over controls) | 5 (No increase over controls) |  | 52.6 g | 54.7 cm | 5 (No increase over controls) | 5 (No increase over controls) | 5 (No increase over controls) | 6.0 g | 57.3 g | 55.5 cm | 5 (No increase over controls) |
| Cn1c(-c2ccccc2)cc(-c2ccccc2)[n+]1C.O=[N+]([O-])[N-]c1ccccc1Br [1,2-Dimethyl-3,5-diphenylpyrazolium salt with 2-Bromo-N--aci-nitroaniline] | 4 | 4 |  | 51.0 g | 52.5 cm | 5 (No increase over controls) | 5 (No increase over controls) | 5 (No increase over controls) |  | 53.5 g | 50.6 cm | 5 (No increase over controls) | 5 (No increase over controls) | 5 (No increase over controls) |  | 47.4 g | 50.0 cm | 5 (No increase over controls) |
| O=[N+]([O-])Nc1ccc(Br)cc1Br [2,4-Dibromo-N--nitroaniline] | 3 (Moderate, significant increase over controls.) | 4 | 7.8 g | 63.5 g | 54.7 cm | 5 (No increase over controls) | 5 (No increase over controls) | 5 (No increase over controls) | 6.7 g | 56.3 g | 56.0 cm | 5 (No increase over controls) | 5 (No increase over controls) | 5 (No increase over controls) |  | 46.4 g | 53.3 cm | 5 (No increase over controls) |
| O=[N+]([O-])N(F)c1c(Br)cccc1Br [2,6-Dibromo-N--fluoro-N--nitroaniline] | 4 | 4 | 6.0 g | 57.8 g | 52.0 cm | 5 (No increase over controls) | 5 (No increase over controls) | 5 (No increase over controls) |  | 52.6 g | 51.0 cm | 5 (No increase over controls) | 5 (No increase over controls) | 4 |  | 49.2 g | 45.2 cm | 5 (No increase over controls) |
| O=[N+]([O-])Nc1c(Br)cccc1Br [2,6-Dibromo-N--nitroaniline] | 4 | 4 | 6.2 g | 58.3 g | 50.5 cm | 5 (No increase over controls) | 4 | 3 (Moderate, significant increase over controls.) | 6.9 g | 67.5 g | 53.0 cm | 5 (No increase over controls) | 4 | 3 (Moderate, significant increase over controls.) | 5.4 g | 55.8 g | 48.3 cm | 5 (No increase over controls) |
| N#Cc1ccc(N[N+](=O)[O-])c(Br)c1 [2-Bromo-4-cyano-N--nitroaniline] | 5 (No increase over controls) | 4 | 7.4 g | 62.2 g | 53.0 cm | 5 (No increase over controls) | 5 (No increase over controls) | 4 | 7.0 g | 59.2 g | 53.3 cm | 5 (No increase over controls) | 5 (No increase over controls) | 5 (No increase over controls) | 7.0 g | 60.9 g | 53.2 cm | 5 (No increase over controls) |
| CCc1cccc(C(C)C)c1N[N+](=O)[O-] [2-Ethyl-6-isopropyl-N--nitroaniline] | 4 | 4 |  | 50.5 g | 47.7 cm | 5 (No increase over controls) | 4 | 3 (Moderate, significant increase over controls.) | 5.9 g | 59.3 g | 48.7 cm | 5 (No increase over controls) | 4 | 4 | 5.4 g | 56.5 g | 51.0 cm | 5 (No increase over controls) |
| Cc1cc(C)c(N[N+](=O)[O-])c(I)c1 [2-Iodo-4,6-dimethyl-N--nitroaniline] | 5 (No increase over controls) | 5 (No increase over controls) |  | 54.1 g | 52.7 cm | 5 (No increase over controls) | 5 (No increase over controls) | 5 (No increase over controls) |  | 52.7 g | 52.5 cm | 5 (No increase over controls) | 5 (No increase over controls) | 5 (No increase over controls) | 6.2 g | 58.0 g | 53.5 cm | 5 (No increase over controls) |
| O=[N+]([O-])Nc1c(Br)cccc1Br [Sodium salt of 2,6-dibromo-N--nitroaniline] | 4 | 4 |  | 55.6 g | 50.2 cm | 5 (No increase over controls) | 4 | 3 (Moderate, significant increase over controls.) | 6.4 g | 57.6 g | 47.2 cm | 5 (No increase over controls) | 3 (Moderate, significant increase over controls.) | 3 (Moderate, significant increase over controls.) |  | 55.5 g | 47.0 cm | 5 (No increase over controls) |
| O=[N+]([O-])Nc1cccc(Cl)c1Cl [Sodium salt with 2,3-dichloro-N--nitroaniline] | 5 (No increase over controls) | 5 (No increase over controls) | 8.2 g | 60.9 g | 53.3 cm | 5 (No increase over controls) | 5 (No increase over controls) | 5 (No increase over controls) | 7.1 g | 58.7 g | 53.8 cm | 5 (No increase over controls) | 5 (No increase over controls) | 5 (No increase over controls) | 6.0 g | 57.5 g | 52.2 cm | 5 (No increase over controls) |
